# According to patent US11957766B2, “HNQO1-activatable fluorescent probe for imaging cancer cells in-vitro and in-vivo” (Texas Tech University System, priority 2019, dated 2024):
# Tests used:
# NQO1 in A549 cells = test: siRNA knockdown of NQO1 and NIR-ASM activation; type: cell-based, human; conditions: NQO1 expression silenced more than 70%, 60 min incubation, compared with the control
# Experimental: Chemical and genetic approaches confirm the specificity of NIR-ASM for NQO1 in live tumor cells. A fluorescence probe with high sensitivity, simple operation, and excellent specificity will be an asset for the detection of NQO1 in situ. To assess the substrate selectivity of NIR-ASM for NQO1, both A549 and H460 cells were pretreated with 100 nM of NQO1 inhibitor ES936 for 6 h, before incubating with 10 μM NIR-ASM. […] The effect of ES936 on endogenous NQO1 activity and subsequent reactivity with NIR-ASM was also determined by flow cytometry. […] The presence of NQO1 protein in the transfected MDA-MB-231 cells and its absence in the untransfected control was confirmed by immunoblotting (FIG. 13E). Subsequently, the NQO1-negative and positive MDA-MB-231 cell lines were incubated with NIR-ASM and analyzed by fluorescence microscopy and flow cytometry for activation of the probe.
# Knockdown of NQO1 by small interfering RNA (siRNA). NQO1 and scrambled or control siRNAs were introduced into cells using the X-tremeGENE siRNA transfection reagent (Roche) according to the manufacturer's instructions. 10 μl of transfection reagent was mixed with 80 pmol of siRNA and added to A549 cells in six-well plates. siRNA transfection efficiency was confirmed with Western blotting.
# DAOY and T98G cells = test: Flow cytometry of NQ-DCP activation; type: cell-based, human; conditions: 10 μM, λem=586/40, about 1×10^4 cells
# Experimental: Applicability of NQ-DCP for Flow Cytometry. Flow cytometry assays were used to assess the applicability of the NQ-DCP probe to rapidly detect and quantify tumor cells containing hNQO1. The probe was incubated with cell suspensions (DAOY and T98G) for 30 min and a flowcytometry was used to measure the fluorescence (λem=586/40) in about 1×10^4 individual cells.
# (§1) Cell Culture, Fluorescence Imaging, and Flow Cytometry Analysis. Brain tumor cells and astrocytes were grown in Dulbecco's modified Eagle's (DMEM) medium containing 10% Fetal Bovine Serum and 1% penicillin/streptomycin in a humidified atmosphere of 5% CO2 at 37° C. For fluorescence imaging, initially, cells were seeded into 6-well plate and cultured overnight in respective media at 37° C. Media was replaced with fresh medium containing 10 μM NQ-DCP and incubated at 37° C. for 60 min and then the medium was replaced with PBS and live cells were imaged using a fluorescence microscope. For inhibitor study, cells were pretreated with NQO1 inhibitor ES936 (100 nM) for 6 h before adding the NQ-DCP. For determining endogenous hNQO1 activity in cancer cells using flow cytometry, about 10×10^4 cells were incubated with 10 μM of NQ-DCP for 60 min and were analyzed using flow cytometry.
# intracranial U87MG tumor = test: Fluorescence imaging of hNQO1 in intracranial U87MG tumor-bearing mice with NQ-DCP; type: in vivo
# Experimental: Fluorescence Imaging of hNQO1 in U87MG Tumor-Bearing Mice. With the prominent performance of NQ-DCP in cellular fluorescence imaging, the inventors further applied this probe to evaluate its capacity for the noninvasive fluorescence imaging of hNQO1 in vivo. NQ-DCP (10 mg/kg, 50 μL) was intravenously injected into sub-cutaneous U87MG tumor-bearing mice. The whole-body fluorescence was imaged with a Caliper IVIS Spectral imaging system. […] The host organs and tumor from the mice administered with NQ-DCP were harvested and their fluorescence was analyzed ex vivo using the IVIS to confirm the tumor-selective targeting ability of NQ-DCP. […] The application of NQ-DCP to image hNQO1 activity was also investigated in intracranial U87MG tumor-bearing mice. Tumor xenografts were established by implanting exponentially growing U87MG-Luc cells by stereotaxic injection into mice brain and the tumor growth was assessed by quantitative bioluminescence using IVIS (in vivo imaging system) (FIG. 7C). […] Therefore, the inventors performed intracranial injection of NQ-DCP (100 μM, 5 μL) to both healthy and tumor-bearing mice, the brain was isolated after 30 min and fluorescence images acquired.
# Four-week-old male and female NCG and athymic nude mice were housed in a micro ventilated caging system in a sterile environment and fed ad-libitum with standard irradiated research rodent diet and water. To detect endogenous NQO1 activity, NQ-DCP (10 mg/kg) was dissolved PEG-400:EtOH:saline (57.1:14.3:28.6, v/v/v) and 50 μL given through intravenous injection and animals were imaged using IVIS Lumina XR Imaging system. To establish U87MG xenografts, a total of 5×10^6 cells (in 0.1 mL) were subcutaneously injected into the right inguinal area of the athymic nude mice. For establishing the orthotopic brain tumor model, the animals were anesthetized using 2% isoflurane and positioned in a Benchmark (Leica) stereotactic instrument. A 27-gauge needle was then used to drill a burr hole into the skull 0.5-mm anterior and 2-mm lateral to the bregma. U87MG-Luc2 cell suspension (2×10^5 cells in 5 μl PBS) was injected in the striatum at a depth of […] from the dural surface over 10 min. […] To detect endogenous NQO1 activity, orthotopic brain tumor models, NQ-DCP ([…]) was dissolved saline and 5 μL given through intracranial injection to both healthy and tumor-bearing mice. After 30 min of administration, brains were isolated and imaged using IVIS Lumina XR Imaging system.
# hNQO1 in T98G cells = test: siRNA knockdown of NQO1 and NQ-DCP activation; type: cell-based, human; conditions: compared with a siRNA control, 10 μM probe
# Experimental: Evaluation of Specificity in Cancer Cells. To show the substrate selectivity of NQ-DCP for hNQO1, T98G cells were pretreated with 100 nM of NQO1 inhibitor ES936 for 6 h and incubated 10 μM of NQ-DCP.
# Knockdown of NQO1 by Small Interfering RNA (siRNA). NQO1 siRNA (a pool of 3 target-specific 19-25 nt siRNAs, Santa Cruz Biotechnology, Inc., (Dallas, TX, USA) and scrambled siRNAs were introduced into cells using the X-tremeGENE siRNA transfection reagent (Roche, Basel, Switzerland) according to the manufacturer's instructions with 80 pmol of NQO1 siRNA and 10 μl of transfection reagent per well of a six-well plate for T98G cells.
# [1] = test system: DAOY, T98G, and U87MG cells; test: Fluorescence microscopy of NQ-DCP in hNQO1 positive cancer cells; type: cell-based, human
# Experimental: Visualization of Cancer Cells by Fluorescence Imaging of hNQO1. […] The cytotoxicity of NQ-DCP was initially evaluated in cultured brain tumor (DAOY, T98G, and U87MG) and normal (astrocytes) cells to assess its biocompatibility using the resazurin reduction assay. […] Cells were incubated with NQ-DCP (10 μM) for 60 min, washed with PBS and were imaged under a fluorescence microscope.
# as §1
# [2] = intracranial injection 100 μM, 5 μL, brain isolated after 30 min
SMILES,NIR-ASM fluorescence after siRNA silencing of NQO1 (NQO1 in A549 cells),flow cytometry fluorescence signal (DAOY and T98G cells),"blood-brain barrier crossing (intracranial U87MG tumor; explanation offered (""perhaps"") for lack of signal after systemic injection)","ex vivo brain fluorescence, control healthy mouse (intracranial U87MG tumor; [2])","ex vivo brain fluorescence, tumor-bearing mouse (intracranial U87MG tumor; [2])",fluorescence signal in intracranial tumors (intracranial U87MG tumor; systemic injections of the probe),decrease in fluorescence after siRNA silencing of the hNQO1 gene (hNQO1 in T98G cells),"fluorescence signal in cancer cells ([1]; 10 μM, 60 min)",cell permeability ([1]; inferred from intracellular activation)
"CC1=C(C)C(=O)C(C(C)(C)CC(=O)Nc2ccc(/C=C/C3=CC(=C(C#N)C#N)CC(C)(C)C3)cc2)=C(C)C1=O [NIR-ASM, (E)-N-(4-(2-(3-(dicyanomethylene)-5,5-dimethylcyclohex-1-en-1-yl)vinyl)phenyl)-3-methyl-3-(2,4,5-trimethyl-3,6-dioxocyclohexa-1,4-dien-1-yl)butanamide]",almost a total loss,–,–,–,–,–,–,–,–
CC1=C(C)C(=O)C(C(C)(C)CC(=O)Oc2ccc(/C=C/C3=CC(=C(C#N)C#N)CC(C)(C)C3)cc2)=C(C)C1=O [NQ-DCP],–,high-intensity unimodal distribution of signal,inability of the NQ-DCP to cross the blood-brain barrier,no fluorescence,bright fluorescence signal,not able to observe any fluorescence signal,90-95%,bright fluorescence signals,good cell permeability
